Source: ChEMBL document CHEMBL1155913, “Novel anticancer agents, kayeassamins A and B from the flower of Kayea assamica of Myanmar” (2008)
Calls of active or inactive are those of the source. The calls are words filed in the database; no cut-off is given here.

What was measured:
PANC-1 [1] = test: Cytotoxicity against human PANC1 cells under nutrient-deprived medium after 24 hrs by serial dilution method; assay type: functional
PANC-1 [2] = test: Selectivity index, ratio of PC100 for human PANC1 cells under nutrient-rich to nutrient-deprived medium; assay type: functional
PANC-1 [3] = test: Induction of apoptosis in human PANC1 cells under nutrient-deprived medium assessed as morphological changes at 1 uM after 24 hrs by phase-contrast microscopy; assay type: functional, cell-based
PANC-1 [4] = test: Inhibition of human PANC1 cells migration to pipette tip-induced wounds under nutrient-rich medium at 1 uM after 72 hrs by phase-contrast microscopy; assay type: functional, cell-based

SMILES	Cytotoxicity (PANC-1 [1]) [µM]	Ratio (PANC-1 [2])	Activity (PANC-1 [3])	Activity (PANC-1 [4])
COc1cc(C[C@H]2C(=O)OC[C@@H]2Cc2ccc(OC)c(OC)c2)ccc1O [ARCTIGENIN]	1			
CCCC(=O)c1c(O)c(C/C=C(\C)CCC=C(C)C)c(O)c2c([C@@H](O)CC)cc(=O)oc12 [KAYEASSAMIN A]	1	256	Active	inactive
CCCC(=O)c1c(O)c(C/C=C(\C)CCC=C(C)C)c2oc(=O)cc([C@@H](O)CC)c2c1O [KAYEASSAMIN B]	1	256	Active	inactive
